# Reference: ChEMBL document CHEMBL1147696, “Discovery of bitriazolyl compounds as novel antiviral candidates for combating the tobacco mosaic virus” (2006)
# Columns and labels:
# Type in all cases: functional
# Tobacco mosaic virus [1] = experiment: Antiviral activity against TMV; parameters: concentration or dose not given beside the values
# Tobacco mosaic virus [2] = experiment: Induction of systemic acquired resistance of tobacco plant against TMV at 100 ug/ml by leaf spray treatment
# Tobacco mosaic virus [3] = experiment: Induction of systemic acquired resistance of tobacco plant against TMV at 100 ug/ml by soil treatment
SMILES,Activity (Tobacco mosaic virus [1]) [%],Activity (Tobacco mosaic virus [2]) [%],Activity (Tobacco mosaic virus [3]) [%]
COc1ccc(-c2cn(-c3n[nH]c(C(N)=O)n3)nn2)cc1,0,–,–
NC(=O)c1n[nH]c(-n2cc(-c3ccccc3)nn2)n1,0,–,–
COC(=O)c1n[nH]c(-n2cc(-c3ccc(F)cc3)nn2)n1,12,–,–
CCCCCc1ccc(-c2cn(-c3n[nH]c(C(=O)OC)n3)nn2)cc1,23,–,–
COC(=O)c1n[nH]c(-n2cc(-c3ccc(C)cc3)nn2)n1,10,–,–
NC(=O)c1n[nH]c(-n2cc(C3=CCCCC3)nn2)n1,7,–,–
COC(=O)c1n[nH]c(-n2cc(C3(O)CCCCC3)nn2)n1,17,–,–
COC(=O)c1n[nH]c(-n2cc(COC(C)=O)nn2)n1,36,–,–
COC(=O)c1n[nH]c(-n2cc(C3(O)CCCC3)nn2)n1,10,–,–
NC(=O)c1n[nH]c(-n2cc(C3(O)CCCC3)nn2)n1,13,–,–
COC(=O)c1n[nH]c(-n2cc(-c3ccccc3)nn2)n1,63,10,10
CCOC(=O)c1cn(-c2n[nH]c(C(=O)OC)n2)nn1,20,–,–
NC(=O)c1cn(-c2n[nH]c(C(N)=O)n2)nn1,0,–,–
CCCCCc1ccc(-c2cn(-c3n[nH]c(C(N)=O)n3)nn2)cc1,28,–,–
O=C1NCNC(=O)N1,45,–,–
NC(=O)c1n[nH]c(-n2cc(CO)nn2)n1,8,–,–
NC(=O)c1n[nH]c(-n2cc(-c3ccc(F)cc3)nn2)n1,0,–,–
COC(=O)c1n[nH]c(-n2cc(-c3ccc(OC)cc3)nn2)n1,15,–,–
Cc1ccc(-c2cn(-c3n[nH]c(C(N)=O)n3)nn2)cc1,6,–,–
NC(=O)c1n[nH]c(-n2cc(C3(O)CCCCC3)nn2)n1,0,–,–
COC(=O)c1n[nH]c(-n2cc(C3=CCCCC3)nn2)n1,75,0,0
CSC(=O)c1cccc2nnsc12 [ACIBENZOLAR-S-METHYL],–,95,96
NC(=O)c1ncn([C@@H]2O[C@H](CO)[C@@H](O)[C@H]2O)n1 [RIBAVIRIN],49,–,–
